In patent publication US8993310B2, “Device for diagnosis of physiologic status and/or selection of the best spermatozoa of a semen sample based on chemotaxis, and procedure of use thereof” (Consejo Nacional de Investigaciones Cientificas y Technicas …, priority 2009, dated 2015):
Entries after “also recorded” stand apart in the source; their conditions may differ.

Test system: spermatozoa
Test: Sperm separation by chemotaxis in the two-compartment device (aggregation in compartment 1a)
Type: cell-based
Conditions: for percentage of aggregated spermatozoa in compartment 1a by chemotaxis (net, Δ vs control): 6 million S/ml, 10 pM progesterone, 20 minutes incubation
Experimental: Separation of mobile spermatozoa (S) of seminal plasma is done by the Percoll technique. A volume of about 2 ml semen is used, which is deposited on 1 ml Percoll gradient (lower layer: 500 μl Percoll 95%, upper layer: 500 μl of Percoll 47.5%, in HAM-F10). After centrifuging 20 minutes at 1800 rpm, the cell pellet is recovered and washed twice by centrifugation for 7 min at 1000 rpm, with HAM-F10 medium. Finally, the recovered pellet is suspended in 1 ml of HAM-F10 medium, cell count is performed in a cell count chamber, and volume is adjusted in order to obtain a concentration of 8 million S/ml. S capability is increased in HAM-F10 medium supplemented with 1% human serum albumin (HSA) for 4 hours a 37° C., under 5% CO2 atmosphere in air.
When capacitation time is finished, S concentration is adjusted in order to obtain 6 million mobile S/ml, and two devices are set up as described in the preceding section (FIGS. 1-3), one without attractant as negative control, and the other with progesterone as attractant.
To set up the device control, a device as described in FIGS. 1 to 3, proceed as follows: 1) the plug is placed in compartment 1a, where culture medium (HAM-F10/1%HSA) is placed, 2) the bridge linking both compartments is filled with culture medium, 3) S suspension is placed in compartment 1b (130 μl of the solution of 6 million mobile S/ml) and this compartment is closed with the plug, 4) compartment 1a is unplugged and filled with culture medium (130 μl).
For device set up with the attractant, another device is prepared as described in FIGS. 1 to 3, like the device control but replacing culture medium with a 10 pM Progesterone solution diluted in culture medium. Once both devices are set up (“Control” and “Attractant”), they are incubated for 20 minutes at 37° C., under 5% CO2 atmosphere in air.
To take the device apart and recover the best spermatozoa, the compartment solution (1a) containing culture medium or attractant is removed. On the spermatozoa suspension removed from compartment 1a of both devices (control and attractant) cell count is performed in a cell count chamber. Then the difference in percentage of S found in each of these two compartments is determined, which enables to value net percentage of S migrating to the attractant-containing compartment (“Δ”).

## C[C@H]1O[C@@H](n2cnc3c(N)ncnc32)C[C@@H]1O [ddAdo]
Cells pre-treated, progesterone as attractant (FIGS. 8 and 9)
  sperm aggregation in compartment 1a by chemotaxis when cells were previously treated with inhibitor or antibody: no sperm aggregation due to chemotaxis is seen

## CC(=O)[C@H]1CC[C@H]2[C@@H]3CCC4=CC(=O)CC[C@]4(C)[C@H]3CC[C@]12C [progesterone]
  percentage of aggregated spermatozoa in compartment 1a by chemotaxis (net, Δ vs control): about 10%
Listed as Progesterone
  percentage of aggregated spermatozoa in compartment 1a by chemotaxis (net, Δ vs control): 9±0.4%
Decreasing gradient of attractant compared with increasing gradient (FIG. 10)
  sperm aggregation in a decreasing versus an increasing gradient of progesterone: similar
Equal concentration of hormone in both compartments 1a and 1b (FIG. 10)
  sperm aggregation in the absence of gradient of progesterone: sperm aggregation is reduced; also recorded: no sperm aggregation observed
